Laboratory results published in patent US20230114728A1 (Venatorx Pharmaceuticals, Inc., priority 2019, published 2023).
≈ marks a conversion by molar mass, not a printed value. Read-outs that look alike come from different tables or passages of the source.

How the values were obtained:
E. coli K12 PBP3 = molecular target: T1, E. coli K12 PBP3 (Escherichia coli, UniProt P0AD68); assay: biochemical; assay type: binding
T1 construct: made in house
Summary of the method: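 A. baumannii PBP2 (2.5 μM) and PBP3 (0.2 μM) were run in 25 mM Tris pH 8.0 buffer with Tween 20; E. coli PBP3 (1.5 μM) and N. gonorrhoeae PBP2 ([…]) in 50 mM Hepes pH 8.0 buffer.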

[1] = tested on: N. gonorrhoeae ATCC 49226; assay: Liquid broth MIC in Fastidious broth; assay type: cell-based; conditions: Neisseria gonorrhoeae, ATCC49226, Fastidious broth
Summary of the method: (§1)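 Colonies were swabbed from chocolate agar after 24 h growth and standardised by optical density at 600 nm. Compounds were serially diluted twofold in Fastidious broth, and bacteria added to give 5×10^5 CFU/mL. After about 24 h at 36 °C in 5% CO2, the lowest concentration allowing under 10% growth was taken as MIC.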

N. gonorrhoeae WHO L = assay: Liquid broth MIC in Fastidious broth; assay type: cell-based; conditions: Neisseria gonorrhoeae, Fastidious broth
Summary of the method: as §1

N. gonorrhoeae WHO Q = assay: Liquid broth MIC in Fastidious broth; assay type: cell-based; conditions: Neisseria gonorrhoeae
Summary of the method: (§2)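 MIC = lowest concentration giving <10% growth relative to untreated wells, scored by eye after ~24 h at 36 °C, 5% CO2. Strains carry mosaic PBP2; inoculum 5×10^5 CFU/mL in Fastidious broth with 2-fold serial compound dilutions.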

N. gonorrhoeae WHO K = assay: Liquid broth MIC in Fastidious broth; assay type: cell-based; conditions: Neisseria gonorrhoeae
Summary of the method: as §2

N. gonorrhoeae FA1090 = assay: Liquid broth MIC in Fastidious broth; assay type: cell-based; conditions: Neisseria gonorrhoeae, Fastidious broth
Summary of the method: as §1

N. gonorrhoeae WHO Z = assay: Liquid broth MIC in Fastidious broth; assay type: cell-based; conditions: Neisseria gonorrhoeae
Summary of the method: as §2

N. gonorrhoeae H041 = assay: Liquid broth MIC in Fastidious broth; assay type: cell-based; conditions: Neisseria gonorrhoeae
Summary of the method: as §2

N. gonorrhoeae WHO G = assay: Liquid broth MIC in Fastidious broth; assay type: cell-based; conditions: Neisseria gonorrhoeae, Fastidious broth
Summary of the method: as §1

P. aeruginosa PBP3 = molecular target: T2, P. aeruginosa PBP3 (Pseudomonas aeruginosa, UniProt G3XD46); assay: Bocillin-FL fluorescence polarization competition binding assay, P. aeruginosa PBP3; conditions: fluorescence polarization competition binding assay using Bocillin-FL
T2 construct: made in house
Summary of the method: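 Inhibitor competition with Bocillin-FL for P. aeruginosa PBP3 was followed by fluorescence polarization on a Cytation3 (BioTek) reader, using g-factor 0.96, 490 nm excitation and 520 nm emission. The enzyme was at 0.75 μM and the probe at 0.1 μM in Hepes/NaCl/glycerol buffer, 80 μl per well. FP was recorded immediately after probe addition for up to 60 minutes. Potency was expressed as EC50, the concentration that reduces bound probe by 50%.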

[2] = N. gonorrhoeae strain ATCC 49226, read-out: Minimum Inhibitory Concentration, N. gonorrhoeae ATCC 49226
[3] = N. gonorrhoeae strain WHO L, read-out: Minimum Inhibitory Concentration, N. gonorrhoeae WHO L
[4] = read-out: Minimum Inhibitory Concentration, N. gonorrhoeae WHO Q
[5] = read-out: Minimum Inhibitory Concentration, N. gonorrhoeae WHO K
[6] = N. gonorrhoeae strain FA1090, read-out: Minimum Inhibitory Concentration, N. gonorrhoeae FA1090
[7] = read-out: Minimum Inhibitory Concentration, N. gonorrhoeae WHO Z
[8] = H041, read-out: Minimum Inhibitory Concentration, N. gonorrhoeae H041
[9] = N. gonorrhoeae strain WHO G, read-out: Minimum Inhibitory Concentration, N. gonorrhoeae WHO G

T1 sequence (P0AD68 1-577): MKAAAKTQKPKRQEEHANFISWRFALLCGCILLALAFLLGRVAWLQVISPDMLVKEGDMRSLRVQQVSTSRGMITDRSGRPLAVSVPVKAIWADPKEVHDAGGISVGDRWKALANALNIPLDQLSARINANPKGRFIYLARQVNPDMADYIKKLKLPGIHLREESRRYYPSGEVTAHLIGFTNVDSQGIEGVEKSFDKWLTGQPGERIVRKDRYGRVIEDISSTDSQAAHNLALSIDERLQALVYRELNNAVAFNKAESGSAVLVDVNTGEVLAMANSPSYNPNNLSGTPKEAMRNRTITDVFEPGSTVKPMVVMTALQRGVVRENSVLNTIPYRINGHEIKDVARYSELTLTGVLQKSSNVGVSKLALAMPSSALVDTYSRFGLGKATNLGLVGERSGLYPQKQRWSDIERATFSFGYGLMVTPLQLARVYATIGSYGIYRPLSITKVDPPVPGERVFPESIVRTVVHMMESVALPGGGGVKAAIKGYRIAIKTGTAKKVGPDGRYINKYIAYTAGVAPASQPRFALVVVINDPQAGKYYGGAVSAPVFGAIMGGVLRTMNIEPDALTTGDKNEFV
T2 sequence (G3XD46 whole entry): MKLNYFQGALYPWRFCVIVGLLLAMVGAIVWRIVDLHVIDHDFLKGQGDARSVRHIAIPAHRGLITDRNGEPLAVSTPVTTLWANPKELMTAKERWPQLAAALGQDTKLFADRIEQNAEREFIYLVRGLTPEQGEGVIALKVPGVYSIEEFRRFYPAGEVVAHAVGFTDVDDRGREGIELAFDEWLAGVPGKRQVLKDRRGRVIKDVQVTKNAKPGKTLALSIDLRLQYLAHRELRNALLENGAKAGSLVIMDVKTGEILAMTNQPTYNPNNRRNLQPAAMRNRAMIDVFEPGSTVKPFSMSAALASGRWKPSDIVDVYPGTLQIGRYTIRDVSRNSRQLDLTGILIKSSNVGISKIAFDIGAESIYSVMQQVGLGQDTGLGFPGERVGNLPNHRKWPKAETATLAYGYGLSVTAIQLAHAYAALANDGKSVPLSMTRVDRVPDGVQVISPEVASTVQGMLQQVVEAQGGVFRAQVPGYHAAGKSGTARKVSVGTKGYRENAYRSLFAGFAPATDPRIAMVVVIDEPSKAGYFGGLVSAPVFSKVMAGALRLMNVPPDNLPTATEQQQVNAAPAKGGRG

Structure (SMILES)	EC50 (E. coli K12 PBP3) [µM]	MIC [1, 2] [µg/mL]	MIC (N. gonorrhoeae WHO L; [3]) [µg/mL]	MIC (N. gonorrhoeae WHO Q; [4]) [µg/mL]	MIC (N. gonorrhoeae WHO K; [5]) [µg/mL]	MIC (N. gonorrhoeae FA1090; [6]) [µg/mL]	MIC (N. gonorrhoeae WHO Z; [7]) [µg/mL]	MIC (N. gonorrhoeae H041; [8]) [µg/mL]	MIC (N. gonorrhoeae WHO G; [9]) [µg/mL]	P. aeruginosa PBP3 Potency (P. aeruginosa PBP3)	MIC ([1]; N. gonorrhoeae ATCC 49226, read-out: Minimum Inhibitory Concentration, ATCC 49226) [µg/mL]	MIC (N. gonorrhoeae WHO L; N. gonorrhoeae WHO L, read-out: Minimum Inhibitory Concentration, WHO L) [µg/mL]	MIC (N. gonorrhoeae WHO Q; read-out: Minimum Inhibitory Concentration, WHO Q) [µg/mL]	MIC (N. gonorrhoeae WHO K; read-out: Minimum Inhibitory Concentration, WHO K) [µg/mL]	MIC (N. gonorrhoeae FA1090; N. gonorrhoeae FA1090, read-out: Minimum Inhibitory Concentration, FA1090) [µg/mL]	MIC (N. gonorrhoeae WHO Z; read-out: Minimum Inhibitory Concentration, WHO Z) [µg/mL]	MIC (N. gonorrhoeae H041; H041, read-out: Minimum Inhibitory Concentration, H041) [µg/mL]	MIC (N. gonorrhoeae WHO G; N. gonorrhoeae WHO G, read-out: Minimum Inhibitory Concentration, WHO G) [µg/mL]
CCN1CCN(C(=O)N[C@@H](C(=O)N[C@H]2Cc3cccc(C(=O)O)c3OB2O)c2c(O)cc(O)cc2F)C(=O)C1=O (single isomer, unassigned) [Example 182]	< 30	4 to 8 (≈ 7.16 to 14.3 µM)	16 to 32 (≈ 28.7 to 57.3 µM)	16 to 32 (≈ 28.7 to 57.3 µM)	16 to 32 (≈ 28.7 to 57.3 µM)	< 0.125	16 to 32 (≈ 28.7 to 57.3 µM)	> 64	1 to 2 (≈ 1.79 to 3.58 µM)									
NCCN1CCN(C(=O)N[C@@H](C(=O)N[C@H]2Cc3cccc(C(=O)O)c3OB2O)c2ccc(O)c(Cl)c2F)C(=O)C1=O (single isomer, unassigned) [Example 186]	< 30	16 to 32 (≈ 27 to 54.1 µM)	> 64	> 64	> 64	0.25 to 0.5 (≈ 0.422 to 0.845 µM)	> 64	> 64	4 to 8 (≈ 6.76 to 13.5 µM)	D (D represents a potency <10 μM)								
NCCN1CCN(C(=O)N[C@H](C(=O)N[C@H]2Cc3cccc(C(=O)O)c3OB2O)c2ccc(O)c(Cl)c2F)C(=O)C1=O (single isomer, unassigned) [Example 187]	30 to 500	> 64	> 64	> 64	> 64	4 to 8 (≈ 6.76 to 13.5 µM)	> 64	> 64	> 64	B (B represents a potency between 30 μM and 500 μM inclusive)								
O=C(NCCCN1CCN(C(=O)NC(C(=O)N[C@H]2Cc3cccc(C(=O)O)c3OB2O)c2ncc(O)cc2F)C(=O)C1=O)c1ccc(O)c(O)c1Cl (stereo partly drawn) [Example 1, (3R)-3-(2-(4-(3-(2-chloro-3,4-dihydroxybenzamido)propyl)-2,3-dioxopiperazine-1-carboxamido)-2-(3-fluoro-5-hydroxypyridin-2-yl)acetamido)-2-hydroxy-3,4-dihydro-2H-benzo[e][1,2]oxaborinine-8-carboxylic acid]	< 30									D (D represents a potency <10 μM)								
C[C@H]1CN(CCNC(=O)c2ccc(O)c(O)c2Cl)C(=O)C(=O)N1C(=O)NC(C(=O)N[C@H]1Cc2cccc(C(=O)O)c2OB1O)c1ncc(O)cc1F (stereo partly drawn) [Example 2, (3R)-3-(2-((S)-4-(2-(2-chloro-3,4-dihydroxybenzamido)ethyl)-6-methyl-2,3-dioxopiperazine-1-carboxamido)-2-(3-fluoro-5-hydroxypyridin-2-yl)acetamido)-2-hydroxy-3,4-dihydro-2H-benzo[e][1,2]oxaborinine-8-carboxylic acid]	< 30	> 64	> 64		> 64	4 to 8 (≈ 5.38 to 10.8 µM)		> 64	> 64	D (D represents a potency <10 μM)								
O=C(NCCCN1CCN(C(=O)NC(C(=O)N[C@H]2Cc3ccc(F)c(C(=O)O)c3OB2O)c2ncc(O)cc2F)C(=O)C1=O)c1ccc(O)c(O)c1Cl (stereo partly drawn) [Example 3, (3R)-3-(2-(4-(3-(2-chloro-3,4-dihydroxybenzamido)propyl)-2,3-dioxopiperazine-1-carboxamido)-2-(3-fluoro-5-hydroxypyridin-2-yl)acetamido)-7-fluoro-2-hydroxy-3,4-dihydro-2H-benzo[e][1,2]oxaborinine-8-carboxylic acid]	< 30									D (D represents a potency <10 μM)								
Nc1nc(C(NC(=O)N2CCN(CCNC(=O)c3ccc(O)c(O)c3Cl)C(=O)C2=O)C(=O)N[C@H]2Cc3ccc(F)c(C(=O)O)c3OB2O)c(F)s1 (stereo partly drawn) [Example 4, (3R)-3-(2-(2-amino-5-fluorothiazol-4-yl)-2-(4-(2-(2-chloro-3,4-dihydroxybenzamido)ethyl)-2,3-dioxopiperazine-1-carboxamido)acetamido)-7-fluoro-2-hydroxy-3,4-dihydro-2H-benzo[e][1,2]oxaborinine-8-carboxylic acid]	< 30	16 to 32 (≈ 21.3 to 42.6 µM)	> 64		> 64	4 to 8 (≈ 5.32 to 10.6 µM)		> 64	4 to 8 (≈ 5.32 to 10.6 µM)	D (D represents a potency <10 μM)								
O=C(NCCN1CCN(C(=O)NC(C(=O)N[C@H]2Cc3ccc(F)c(C(=O)O)c3OB2O)c2ncc(O)cc2F)C(=O)C1=O)c1c(F)cc(O)c(O)c1Cl (stereo partly drawn) [Example 5, (3R)-3-(2-(4-(2-(2-chloro-6-fluoro-3,4-dihydroxybenzamido)ethyl)-2,3-dioxopiperazine-1-carboxamido)-2-(3-fluoro-5-hydroxypyridin-2-yl)acetamido)-7-fluoro-2-hydroxy-3,4-dihydro-2H-benzo[e][1,2]oxaborinine-8-carboxylic acid]	< 30	> 64	> 64		> 64	4 to 8 (≈ 5.23 to 10.5 µM)		> 64	16 to 32 (≈ 20.9 to 41.8 µM)	D (D represents a potency <10 μM)								
Nc1nc(/C(=N/OC[C@H](NC(=O)c2ccc(O)c(O)c2Cl)C(=O)O)C(=O)N[C@H]2Cc3cccc(C(=O)O)c3OB2O)cs1 [Example 6, (R)-3-((Z)-2-(2-aminothiazol-4-yl)-2-(((S)-2-carboxy-2-(2-chloro-3,4-dihydroxybenzamido)ethoxy)imino)acetamido)-2-hydroxy-3,4-dihydro-2H-benzo[e][1,2]oxaborinine-8-carboxylic acid]	30 to 500	> 64	> 64		> 64	16 to 32 (≈ 25.2 to 50.5 µM)		> 64	16 to 32 (≈ 25.2 to 50.5 µM)	D (D represents a potency <10 μM)								
CCN1CCN(C(=O)NC(C(=O)N[C@H]2Cc3ccc(F)c(C(=O)O)c3OB2O)c2ncc(C(=O)O)cc2F)C(=O)C1=O (stereo partly drawn) [Example 33, 6-(2-(((R)-8-carboxy-7-fluoro-2-hydroxy-3,4-dihydro-2H-benzo[e][1,2]oxaborinin-3-yl)amino)-1-(4-ethyl-2,3-dioxopiperazine-1-carboxamido)-2-oxoethyl)-5-fluoronicotinic acid]		16 to 32 (≈ 27.2 to 54.3 µM)	> 64		> 64	4 to 8 (≈ 6.79 to 13.6 µM)		> 64	16 to 32 (≈ 27.2 to 54.3 µM)	D (D represents a potency <10 μM)								
CCN1CCN(C(=O)N[C@H](C(=O)N[C@H]2Cc3ccc(F)c(C(=O)O)c3OB2O)c2ccc(O)c(O)c2)C(=O)C1=O [Example 210, (R)-3-((S)-2-(3,4-dihydroxyphenyl)-2-(4-ethyl-2,3-dioxopiperazine-1-carboxamido)acetamido)-7-fluoro-2-hydroxy-3,4-dihydro-2H-benzo[e][1,2]oxaborinine-8-carboxylic acid]	> 500										> 64	> 64	> 64	> 64	> 64	> 64	> 64	> 64
NCCN1CCN(C(=O)N[C@@H](C(=O)N[C@H]2Cc3ccc(F)c(C(=O)O)c3OB2O)c2c(F)c(F)c(O)c(O)c2Cl)C(=O)C1=O [Example 226, (R)-3-((R)-2-(4-(2-aminoethyl)-2,3-dioxopiperazine-1-carboxamido)-2-(2-chloro-5,6-difluoro-3,4-dihydroxyphenyl)acetamido)-7-fluoro-2-hydroxy-3,4-dihydro-2H-benzo[e][1,2]oxaborinine-8-carboxylic acid]										B (B represents a potency between 30 μM and 500 μM inclusive)								
